Results as given in ChEMBL document CHEMBL1201862, “PubChem BioAssay data set” (2004).
Calls of active or inactive are those of the source.

What was measured:
Nonstructural protein 1 = Nonstructural protein 1 (Influenza A virus, UniProt Q194T2); format: functional, Influenza A virus (A/California/07/2009(H1N1))
[1] = target: T1, Rac GTPase-activating protein 1 (Homo sapiens, UniProt Q9H0H5); assay: MgcRacGAP GTPase-activating activity inhibitors, confirmation, biochemical, ADP Hunter fluorescence, primary and confirmatory (AID 624330); format: functional
T1 sequence (Q9H0H5 whole entry): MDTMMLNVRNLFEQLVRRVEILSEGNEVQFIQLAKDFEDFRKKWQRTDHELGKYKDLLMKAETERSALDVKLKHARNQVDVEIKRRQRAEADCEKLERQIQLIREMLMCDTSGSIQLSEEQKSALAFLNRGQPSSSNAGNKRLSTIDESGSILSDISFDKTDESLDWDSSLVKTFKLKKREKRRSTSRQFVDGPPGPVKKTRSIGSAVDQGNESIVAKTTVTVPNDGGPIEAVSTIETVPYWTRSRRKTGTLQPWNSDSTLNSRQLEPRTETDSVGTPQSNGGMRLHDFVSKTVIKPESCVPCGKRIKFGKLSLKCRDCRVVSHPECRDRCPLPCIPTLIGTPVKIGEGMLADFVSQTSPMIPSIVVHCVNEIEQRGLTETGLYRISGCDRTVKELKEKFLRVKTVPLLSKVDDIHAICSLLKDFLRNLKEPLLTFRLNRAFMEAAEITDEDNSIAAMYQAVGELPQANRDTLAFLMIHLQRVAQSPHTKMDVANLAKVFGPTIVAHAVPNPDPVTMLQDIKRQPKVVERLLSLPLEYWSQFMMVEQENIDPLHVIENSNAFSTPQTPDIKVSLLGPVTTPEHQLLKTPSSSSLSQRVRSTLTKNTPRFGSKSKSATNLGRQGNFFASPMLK

[2] = human group III sPLA2 inhibitors, dose response, biochemical, QFRET, IC50 (AID 743457);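 note: green fluorescence rise as the enzyme cleaves BODIPY PC-A2 in liposomes; potency for inhibition of the enzyme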
[3] = target: Eukaryotic translation initiation factor 4E (Mus musculus, UniProt P63073); assay: eIF4E–eIF4G protein interaction inhibitors, dose response, biochemical, TR-FRET (AID 855); format: functional;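 note: potency for disrupting eIF4E binding to eIF4GI seen as loss of FRET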
Sequence of Eukaryotic translation initiation factor 4E (P63073 whole entry): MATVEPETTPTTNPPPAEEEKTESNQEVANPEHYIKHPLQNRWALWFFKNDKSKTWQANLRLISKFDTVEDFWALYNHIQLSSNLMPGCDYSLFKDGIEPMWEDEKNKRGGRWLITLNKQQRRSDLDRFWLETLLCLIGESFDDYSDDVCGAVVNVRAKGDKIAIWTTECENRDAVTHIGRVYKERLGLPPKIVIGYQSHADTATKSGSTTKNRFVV

[4] = target: T2, Corticotropin-releasing factor receptor 2/Corticotropin-releasing factor-binding protein (Homo sapiens, UniProt P24387+Q13324); assay: Dose Response confirmation of uHTS hits for small molecule antagonists of the CRF-binding protein and CRF-R2 receptor complex.; format: functional; conditions: read-out: IC50_Mean
T2 sequence (Q13324 whole entry): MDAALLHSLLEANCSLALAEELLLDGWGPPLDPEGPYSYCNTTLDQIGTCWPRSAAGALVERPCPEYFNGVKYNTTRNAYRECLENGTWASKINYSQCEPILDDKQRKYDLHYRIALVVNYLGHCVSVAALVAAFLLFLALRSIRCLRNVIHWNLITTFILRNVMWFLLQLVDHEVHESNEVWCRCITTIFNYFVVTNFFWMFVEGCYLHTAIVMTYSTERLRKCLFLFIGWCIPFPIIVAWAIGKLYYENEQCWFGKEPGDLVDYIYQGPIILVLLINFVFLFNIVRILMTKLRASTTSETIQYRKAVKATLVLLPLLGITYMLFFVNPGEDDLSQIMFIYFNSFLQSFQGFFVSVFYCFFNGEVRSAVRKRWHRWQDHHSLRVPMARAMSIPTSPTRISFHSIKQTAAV
T2 sequence (P24387 whole entry): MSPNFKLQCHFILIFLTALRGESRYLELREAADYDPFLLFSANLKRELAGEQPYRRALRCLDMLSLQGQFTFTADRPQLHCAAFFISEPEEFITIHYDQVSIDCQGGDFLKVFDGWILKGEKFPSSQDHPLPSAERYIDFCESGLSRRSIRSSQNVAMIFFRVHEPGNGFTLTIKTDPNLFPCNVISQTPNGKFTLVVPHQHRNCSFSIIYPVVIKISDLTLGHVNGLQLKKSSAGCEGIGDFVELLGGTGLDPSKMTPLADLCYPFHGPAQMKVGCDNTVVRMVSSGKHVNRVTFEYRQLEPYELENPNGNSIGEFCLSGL

[5] = target: T2, Corticotropin-releasing factor receptor 2/Corticotropin-releasing factor-binding protein; assay: activators of CRF receptor 2 with binding protein – uHTS hits, confirmation (AID 602473); format: functional; conditions: read-out: EC50_Mean
[6] = CRF-BP/CRF-R2 complex antagonists, dose response, cell-based, uHTS hits, 384-well (AID 651639); format: functional, Homo sapiens; conditions: read-out: IC50_Mean
cells [7] = format: functional, cell-based
[8] = target: T3, Trace amine-associated receptor 1 (Homo sapiens, UniProt Q96RJ0); assay: Fluorescence-based cell-based high throughput dose response assay to identify agonists of the human trace amine associated receptor 1 (TAAR1).; format: functional
T3 sequence (Q96RJ0 whole entry): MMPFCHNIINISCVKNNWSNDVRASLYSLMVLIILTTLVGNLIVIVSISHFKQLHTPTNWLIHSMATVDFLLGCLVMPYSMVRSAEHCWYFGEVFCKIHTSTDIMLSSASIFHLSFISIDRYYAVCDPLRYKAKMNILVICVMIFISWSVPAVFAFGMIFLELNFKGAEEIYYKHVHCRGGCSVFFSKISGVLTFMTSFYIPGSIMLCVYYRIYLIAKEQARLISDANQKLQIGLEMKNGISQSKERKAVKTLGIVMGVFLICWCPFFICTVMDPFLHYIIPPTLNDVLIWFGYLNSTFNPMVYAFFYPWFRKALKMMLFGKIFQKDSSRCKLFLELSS

[9] = target: T3, Trace amine-associated receptor 1; assay: Counterscreen for agonists of the human trace amine associated receptor 1 (hTAAR1): Fluorescence-based cell-based high throughput dose response assay to identify hTAAR1 agonist that also desensitize TAAR1 receptor response.; format: functional
cells [10] = format: functional, cell-based; remark: listed apart in the source
[11] = NIH-3T3 fibroblast cytotoxicity, dose response, cytotoxicity control, cell-based, fluorescence, Alamar Blue, secondary assay (AID 2327); format: functional;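 note: NIH-3T3 mouse fibroblasts cultured with fluconazole at 8 µg/mL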
[12] = C. albicans growth with fluconazole, confirmation, fluorescence, retest (AID 2467); format: functional, cell-based

Sequence of Nonstructural protein 1 (Q194T2 whole entry): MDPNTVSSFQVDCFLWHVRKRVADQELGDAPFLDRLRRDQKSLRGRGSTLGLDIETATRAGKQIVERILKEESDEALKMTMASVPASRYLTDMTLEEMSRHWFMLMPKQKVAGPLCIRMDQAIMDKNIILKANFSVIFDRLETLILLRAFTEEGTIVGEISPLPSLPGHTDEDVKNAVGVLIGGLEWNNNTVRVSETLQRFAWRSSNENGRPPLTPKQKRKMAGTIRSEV

COc1cc(OC)c(C2Nc3cccc4cccc(c34)N2)c(OC)c1
IC50 (Nonstructural protein 1): > 100 µM (active) | IC50 [1]: 65.2 µM (active) | IC50 [2]: 83.1 µM (inactive)

COCC(C)n1c(SCc2ccc(C(=O)OC)o2)nc2ccccc2c1=O (centres undefined)
IC50 [3]: > 64 µM (inactive) | IC50 [4]: 27.4 µM (active) | EC50 [5]: > 53 µM (inactive) | IC50 [6]: > 20 µM (inactive)

CC/C(NCCc1ccccc1)=C1/C(=O)NC(=O)N(C2CCCCC2)C1=O
IC50 (cells [7]): > 29.9 µM (inactive) | EC50 [8]: 2.87 µM (active) | IC50 [9]: 6.23 µM (active) | EC50 (cells [10]): > 29.9 µM (inactive)

Cc1cccc(C(CC(=O)NCCc2ccccc2)c2ccccc2)c1O (centres undefined)
IC50 (cells [7]): > 29.9 µM (inactive) | EC50 [8]: 3.5 µM (active) | IC50 [9]: 4.62 µM (active) | EC50 (cells [10]): > 29.9 µM (inactive)

O=C1/C(=C\c2ccc(Br)cc2)SC(=S)N1NS(=O)(=O)c1ccccc1
EC50 [11]: 94.2 µM (active) | EC50 [12]: 0.267 µM (active) | IC50 [4]: 5.5 µM (active) | EC50 [5]: 36.2 µM (active) | IC50 [6]: 17.6 µM (active)

CN(CCc1ccccc1)c1cc2c(c3c1ccn3C)C1CCC2O1 (centres undefined)
IC50 (cells [7]): > 29.9 µM (inactive) | EC50 [8]: 1.18 µM (active) | IC50 [9]: 5.22 µM (active) | EC50 (cells [10]): > 29.9 µM (inactive)
